Measured values as given in US20230346764A1, “Methods and Compositions for Treating Pruritus, Xerosis, and Associated Disease Using CCR3-Inhibitors” (Alkahest, Inc., priority 2017, published 2023).

Legend:
Half-life of Compound 1 = conditions: read-out: t½ (converted)
SKH-1 Elite mice = test: Oxazolone model of chronic skin inflammation: blood lymphocyte and white blood cell counts; assay type: in vivo, mouse; conditions: day 29; PO; Compound 1 30 mg/kg b.i.d., Dexamethasone 1.5 mg/kg q.d.
Method: FIGS. 9A and 9B report the effects on blood lymphocyte (FIG. 9A) and white blood cell (WBC) (FIG. 9B) levels in mice treated as in FIG. 8. Lymphocyte level reduction was severe with dexamethasone treated mice and less so with Compound 1 treatment.
The Oxazolone model of chronic skin inflammation, was tested using Compound 1 and a known anti-inflammatory, dexamethasone. SKH-1 Elite mice were sensitized with 10 µL of a high dose of topical Oxazolone (5% wt/vol in 100% EtOH) on their back and a subsequent chronic inflammation was triggered using low doses of topical Oxazolone (0.1% wt/vol in 100% EtOH) every other day on both flanks. […]
Three hundred (300) µL of whole blood in 10 mM EDTA freshly collected at day 29 of the study and erythrocytes was analyzed for counting of lymphocytes (FIG. 9A) and white blood cells (WBC) (FIG. 9B) using an Advia - 120 hematology analyzer. Lymphocyte and white blood cell (WBC) populations were quantified for each treatment group (n=3, 6, 8, 8, 8, 6, respectively). All data are mean ± s.e.m. and statistical significance was assessed using one-way ANOVA followed by Tukey’s multiple comparisons test with the following adjusted p-value thresholds: <0.05 (*), < 0.01 (**), < 0.001 (***) and <0.0001 (****).

half-life (Half-life of Compound 1) [h] | blood lymphocyte level reduction (SKH-1 Elite mice) | SMILES
18 |  | Cc1cc(C(=O)N(C)C)cc(NC(=O)[C@H]2CCC(=O)N2C2CCN(Cc3ccc(Cl)c(C)c3)CC2)n1 [Compound 1]
 | severe | C[C@@H]1C[C@H]2[C@@H]3CCC4=CC(=O)C=C[C@]4(C)[C@@]3(F)[C@@H](O)C[C@]2(C)[C@@]1(O)C(=O)CO [Dexamethasone]
